{"source": "patent US20190119284A1", "about": "“ErbB Inhibitors and Uses Thereof” (The Regents of the University of California, priority 2016, published 2019)", "key": {"[1]": {"test_system": "HER2/HER3 signaling in SK-BR-3 cells", "experiment": "HER2/HER3 signaling in SK-BR-3 cells (western blot)", "type": "cell-based", "text": "FIGS. 1A-1E. […] FIG. 1E: Cartoon schematic of the EGFR family kinase domain asymmetric dimer. The C-terminal domain of the ‘activator’ kinase (right) interacts with the N-terminal portion of the ‘receiver’ kinase (left). This interaction stabilizes the active conformation of the receiver kinase identified by the ‘in’ conformation of the receiver kinase's α-C helix and the ordered extension of the activation loop."}, "[2]": {"test_system": "HER2 mutants biased towards the active conformation (NCI-H1781 cells)", "experiment": "signaling in NCI-H1781 cells after 15 min", "type": "cell-based", "settings": "NCI-H1781, dose response"}, "JAK2": {"target": "JAK2 (Homo sapiens, UniProt O60674)", "sequence (O60674 whole entry, species assumed)": "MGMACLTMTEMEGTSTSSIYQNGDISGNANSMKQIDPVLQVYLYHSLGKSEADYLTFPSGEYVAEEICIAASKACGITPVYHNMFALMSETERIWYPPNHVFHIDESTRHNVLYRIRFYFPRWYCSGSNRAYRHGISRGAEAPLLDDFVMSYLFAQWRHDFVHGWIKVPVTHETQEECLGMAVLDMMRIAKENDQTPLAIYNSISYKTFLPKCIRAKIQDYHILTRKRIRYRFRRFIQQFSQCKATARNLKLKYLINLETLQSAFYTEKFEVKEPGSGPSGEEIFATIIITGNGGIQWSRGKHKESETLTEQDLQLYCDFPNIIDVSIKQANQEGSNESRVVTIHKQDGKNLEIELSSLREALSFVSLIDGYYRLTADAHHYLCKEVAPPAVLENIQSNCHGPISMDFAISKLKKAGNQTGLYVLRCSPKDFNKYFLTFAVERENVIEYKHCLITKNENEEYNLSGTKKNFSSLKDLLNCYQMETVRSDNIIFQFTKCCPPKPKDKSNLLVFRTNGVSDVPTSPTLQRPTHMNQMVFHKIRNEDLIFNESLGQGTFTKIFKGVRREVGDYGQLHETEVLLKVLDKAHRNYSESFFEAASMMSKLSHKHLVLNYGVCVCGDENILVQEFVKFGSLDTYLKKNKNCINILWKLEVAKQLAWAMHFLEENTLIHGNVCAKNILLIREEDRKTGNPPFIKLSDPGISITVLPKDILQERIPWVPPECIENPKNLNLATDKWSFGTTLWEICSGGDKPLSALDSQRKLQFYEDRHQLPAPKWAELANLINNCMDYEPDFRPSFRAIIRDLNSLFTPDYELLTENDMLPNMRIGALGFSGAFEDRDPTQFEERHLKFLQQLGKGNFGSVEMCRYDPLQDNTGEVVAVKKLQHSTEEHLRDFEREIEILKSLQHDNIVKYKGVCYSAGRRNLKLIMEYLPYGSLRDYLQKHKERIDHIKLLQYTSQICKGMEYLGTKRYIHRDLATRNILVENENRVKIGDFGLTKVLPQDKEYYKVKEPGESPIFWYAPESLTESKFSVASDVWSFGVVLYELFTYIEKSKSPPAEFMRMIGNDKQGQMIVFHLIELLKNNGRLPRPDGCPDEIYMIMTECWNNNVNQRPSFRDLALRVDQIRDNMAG", "experiment": "Nanosyn in vitro kinase profiling: JAK2", "type": "biochemical", "settings": "compound at 1 μM"}, "TYK2": {"target": "TYK2 (Homo sapiens, UniProt P29597)", "sequence (P29597 whole entry, species assumed)": "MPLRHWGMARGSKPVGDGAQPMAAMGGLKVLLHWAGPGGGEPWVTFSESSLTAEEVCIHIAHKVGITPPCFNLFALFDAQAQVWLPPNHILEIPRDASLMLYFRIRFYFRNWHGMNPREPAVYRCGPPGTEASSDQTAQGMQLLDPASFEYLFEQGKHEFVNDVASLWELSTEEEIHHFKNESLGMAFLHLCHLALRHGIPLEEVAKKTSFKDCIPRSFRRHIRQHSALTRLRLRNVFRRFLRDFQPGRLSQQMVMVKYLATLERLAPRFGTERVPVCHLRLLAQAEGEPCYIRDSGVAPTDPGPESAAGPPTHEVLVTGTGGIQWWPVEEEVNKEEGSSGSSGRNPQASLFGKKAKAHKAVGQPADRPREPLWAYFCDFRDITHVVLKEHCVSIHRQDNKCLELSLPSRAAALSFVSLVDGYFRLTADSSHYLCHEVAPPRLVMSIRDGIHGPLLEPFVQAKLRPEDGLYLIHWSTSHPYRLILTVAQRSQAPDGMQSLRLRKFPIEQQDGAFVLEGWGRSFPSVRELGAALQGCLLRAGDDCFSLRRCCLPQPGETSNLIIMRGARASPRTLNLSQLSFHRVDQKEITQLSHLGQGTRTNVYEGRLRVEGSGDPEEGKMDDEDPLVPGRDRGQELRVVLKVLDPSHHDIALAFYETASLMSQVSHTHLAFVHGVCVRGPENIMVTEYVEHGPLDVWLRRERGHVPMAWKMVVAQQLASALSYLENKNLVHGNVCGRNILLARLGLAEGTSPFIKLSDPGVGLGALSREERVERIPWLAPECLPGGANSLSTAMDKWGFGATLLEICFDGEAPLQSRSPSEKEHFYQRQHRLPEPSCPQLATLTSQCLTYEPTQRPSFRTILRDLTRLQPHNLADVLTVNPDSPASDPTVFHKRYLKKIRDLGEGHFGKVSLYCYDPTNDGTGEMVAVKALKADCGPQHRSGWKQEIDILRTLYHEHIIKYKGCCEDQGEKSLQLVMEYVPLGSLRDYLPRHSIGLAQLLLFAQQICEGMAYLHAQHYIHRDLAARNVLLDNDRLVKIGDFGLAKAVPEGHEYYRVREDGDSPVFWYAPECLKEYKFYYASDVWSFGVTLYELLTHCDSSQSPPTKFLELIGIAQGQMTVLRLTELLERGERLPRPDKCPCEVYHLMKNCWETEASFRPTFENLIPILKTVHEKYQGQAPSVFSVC", "experiment": "Nanosyn in vitro kinase profiling: TYK2", "type": "biochemical", "settings": "compound at 1 μM"}, "JAK1": {"target": "JAK1 (Homo sapiens, UniProt P23458)", "experiment": "Nanosyn in vitro kinase profiling: JAK1", "type": "biochemical", "settings": "compound at 1 μM"}, "NCI-H1781 cells": {"test_system": "NCI-H1781 cells", "experiment": "72 h proliferation of NCI-H1781 cells", "type": "cell-based", "settings": "NCI-H1781, 72 h"}, "SK-BR-3 cells": {"test_system": "SK-BR-3 cells", "experiment": "72 h proliferation of SK-BR-3 cells in the presence or absence of NRG", "type": "cell-based", "settings": "SK-BR-3, 72 h dose response +/- NRG", "description": "FIGS. 1A-1E. NRG rescues HER2 over-expressing cancer cells from HER2 inhibitors. […] FIG 1B: Same experiment as depicted in FIG. 1A, but with the inhibitor TAK-285. FIG. 1C: The ability of NRG to rescue SK-BR-3 and BT-474 cell proliferation from HER2 inhibitors is dose dependent. Cells were treated with 1 μM of the indicated inhibitor in the presence of varying concentrations of NRG, and proliferation was read out after 72 h (mean±SD, n=3). […] FIG. 1E: Cartoon schematic of the EGFR family kinase domain asymmetric dimer. The C-terminal domain of the ‘activator’ kinase (right) interacts with the N-terminal portion of the ‘receiver’ kinase (left). This interaction stabilizes the active conformation of the receiver kinase identified by the ‘in’ conformation of the receiver kinase's α-C helix and the ordered extension of the activation loop.\nFIGS. 5A-5D. […] FIG. 5A: Chemical structure of compound 3 (also referred to herein as compound 178). FIG. 5B: Proliferation curves for compound 3 against the Ba/F3 cell line panel (mean±SD, n=3). […] FIG. 5D: The same assay in FIG. 2A was performed with compound 3 in SK-BR-3 cells."}, "[3]": {"target": "T1, 2YF-L755S/3wt + NRG Ba/F3 cells (Homo sapiens, UniProt P04626, L755S/Y1005F/Y1023F/Y1112F/Y1127F/Y1139F/Y1196F/Y1221F/Y1222F/Y1248F, cells depend on it)", "T1 construct": "reported HER2 oncogenic mutants in the HER2YF construct", "experiment": "Ba/F3 proliferation assay, 2YF-L755S/3wt + NRG", "type": "cell-based", "settings": "Table 4; ± S.D., n = 2; read-out: IC50, 2YF-L755S/3wt + NRG", "description": "For the 2YF/3wt cells, the parental cells were first transduced with HER3 according to the protocol above and were then spun down at 500×g for 5 min and re-suspended in media supplemented with 10 ng/mL IL-3 and 3 μg/mL puromycin (Invitrogen). Cells were maintained in these conditions for seven days, passaging as required. After seven days the cells were spun down, washed with fresh media, and then used for a subsequent round of transduction according to the protocol above with HER2YF virus. […] The cells were maintained in these conditions for seven days, passaging as required. After seven days the cells were spun down, washed with fresh media, and then suspended in media supplemented with 10 ng/mL of NRG. Cells were maintained in these conditions for seven days to select for a NRG dependent population of 2YF/3wt Ba/F3 cells that were then maintained as described above. The same protocol was used for the 2YF-L755S/3wt, 2YF-YVMA/3wt, and 2YF-VC/3wt cell lines using the indicated constructs.\nProliferation Assays. […] The following day media was changed to fresh media that contained either DMSO or the indicated concentration of drug plus NRG (50 ng/mL final concentration) as indicated. […] For all normalized assays, proliferation was normalized to the DMSO control condition. […]"}, "BLK": {"target": "BLK (Homo sapiens, UniProt P51451)", "sequence (P51451 whole entry)": "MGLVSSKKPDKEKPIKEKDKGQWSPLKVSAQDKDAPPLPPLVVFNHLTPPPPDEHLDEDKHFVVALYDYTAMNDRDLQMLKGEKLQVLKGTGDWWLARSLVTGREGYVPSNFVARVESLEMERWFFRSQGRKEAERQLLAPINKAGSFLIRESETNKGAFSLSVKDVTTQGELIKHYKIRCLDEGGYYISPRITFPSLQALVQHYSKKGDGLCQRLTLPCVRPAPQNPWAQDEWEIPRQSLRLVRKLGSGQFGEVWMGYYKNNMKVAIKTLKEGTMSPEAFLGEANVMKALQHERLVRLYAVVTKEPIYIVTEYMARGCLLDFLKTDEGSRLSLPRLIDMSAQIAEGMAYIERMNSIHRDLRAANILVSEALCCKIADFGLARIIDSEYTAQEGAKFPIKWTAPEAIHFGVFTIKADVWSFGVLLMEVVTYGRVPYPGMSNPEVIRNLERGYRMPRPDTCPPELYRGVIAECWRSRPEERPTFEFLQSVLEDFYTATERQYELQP", "experiment": "Nanosyn in vitro kinase profiling: BLK", "type": "biochemical", "description": "(§1) This was confirmed by in vitro profiling against a panel of kinases, with compound 2 only showing potent inhibition of EGFR and Ab1 (Table 2).\n(§2) In vitro Kinome Screen. In vitro profiling of compound 2 at 100 nM was conducted by Nanosyn."}, "JAK3": {"target": "JAK3 (Homo sapiens, UniProt P52333)", "sequence (P52333 whole entry)": "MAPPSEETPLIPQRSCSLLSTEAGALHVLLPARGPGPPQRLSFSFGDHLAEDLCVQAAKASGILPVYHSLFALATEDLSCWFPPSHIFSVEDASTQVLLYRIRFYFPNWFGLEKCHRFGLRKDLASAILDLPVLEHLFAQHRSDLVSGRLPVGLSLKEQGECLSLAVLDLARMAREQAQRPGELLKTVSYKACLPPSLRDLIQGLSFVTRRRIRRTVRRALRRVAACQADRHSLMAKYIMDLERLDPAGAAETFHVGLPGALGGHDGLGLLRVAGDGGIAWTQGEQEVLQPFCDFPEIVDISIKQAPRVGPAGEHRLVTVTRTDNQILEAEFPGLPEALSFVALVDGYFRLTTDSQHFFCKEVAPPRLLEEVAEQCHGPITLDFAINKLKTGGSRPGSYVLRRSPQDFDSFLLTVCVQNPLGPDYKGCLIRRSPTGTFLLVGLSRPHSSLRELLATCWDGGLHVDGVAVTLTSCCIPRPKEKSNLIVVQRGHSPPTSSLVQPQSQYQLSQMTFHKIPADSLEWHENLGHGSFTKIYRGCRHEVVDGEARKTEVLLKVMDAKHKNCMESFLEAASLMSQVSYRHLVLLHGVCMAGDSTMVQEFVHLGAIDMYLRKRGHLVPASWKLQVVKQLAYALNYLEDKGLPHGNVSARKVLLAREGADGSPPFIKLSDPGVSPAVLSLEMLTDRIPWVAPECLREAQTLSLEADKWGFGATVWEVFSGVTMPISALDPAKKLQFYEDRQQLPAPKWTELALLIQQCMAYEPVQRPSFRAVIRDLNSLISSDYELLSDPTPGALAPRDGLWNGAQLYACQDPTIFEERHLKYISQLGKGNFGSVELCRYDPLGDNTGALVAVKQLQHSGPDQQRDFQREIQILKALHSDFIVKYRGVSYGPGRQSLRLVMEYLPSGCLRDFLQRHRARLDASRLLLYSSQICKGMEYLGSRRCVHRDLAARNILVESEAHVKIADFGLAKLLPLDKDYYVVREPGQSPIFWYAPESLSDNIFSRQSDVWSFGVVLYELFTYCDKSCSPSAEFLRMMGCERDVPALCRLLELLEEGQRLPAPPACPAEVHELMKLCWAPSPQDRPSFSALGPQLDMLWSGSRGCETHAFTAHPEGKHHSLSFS", "experiment": "Nanosyn in vitro kinase profiling: JAK3", "type": "biochemical", "description": "as §1, §2"}, "TIE2": {"target": "TIE2 (Homo sapiens, UniProt Q02763)", "sequence (Q02763 23-1124, species assumed)": "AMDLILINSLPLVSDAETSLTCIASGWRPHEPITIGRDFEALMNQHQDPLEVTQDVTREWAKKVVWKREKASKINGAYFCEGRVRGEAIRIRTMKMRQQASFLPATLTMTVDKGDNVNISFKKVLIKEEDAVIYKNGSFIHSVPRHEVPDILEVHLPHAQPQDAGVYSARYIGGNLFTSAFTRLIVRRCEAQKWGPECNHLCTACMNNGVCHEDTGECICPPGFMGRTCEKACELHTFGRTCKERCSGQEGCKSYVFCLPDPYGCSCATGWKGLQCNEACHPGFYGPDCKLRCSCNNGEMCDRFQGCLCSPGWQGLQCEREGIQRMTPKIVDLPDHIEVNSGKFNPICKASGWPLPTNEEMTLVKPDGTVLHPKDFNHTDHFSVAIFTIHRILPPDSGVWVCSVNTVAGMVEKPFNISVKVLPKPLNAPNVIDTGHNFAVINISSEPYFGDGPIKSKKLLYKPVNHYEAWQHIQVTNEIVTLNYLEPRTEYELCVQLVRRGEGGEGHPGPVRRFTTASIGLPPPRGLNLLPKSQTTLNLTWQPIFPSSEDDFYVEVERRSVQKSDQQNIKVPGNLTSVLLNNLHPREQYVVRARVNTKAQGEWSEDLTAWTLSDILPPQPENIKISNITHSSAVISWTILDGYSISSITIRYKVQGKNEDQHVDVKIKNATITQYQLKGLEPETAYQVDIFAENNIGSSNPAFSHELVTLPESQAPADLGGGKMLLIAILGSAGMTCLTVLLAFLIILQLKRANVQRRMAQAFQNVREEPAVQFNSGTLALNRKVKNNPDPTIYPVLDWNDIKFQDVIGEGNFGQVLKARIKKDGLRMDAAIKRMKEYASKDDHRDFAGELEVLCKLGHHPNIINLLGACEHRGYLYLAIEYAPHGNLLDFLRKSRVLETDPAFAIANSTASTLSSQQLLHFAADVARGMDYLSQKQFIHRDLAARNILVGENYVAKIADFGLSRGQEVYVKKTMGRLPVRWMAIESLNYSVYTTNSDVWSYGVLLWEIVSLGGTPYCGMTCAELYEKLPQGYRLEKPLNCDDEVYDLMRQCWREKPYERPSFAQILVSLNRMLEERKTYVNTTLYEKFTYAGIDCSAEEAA", "experiment": "Nanosyn in vitro kinase profiling: TIE2", "type": "biochemical", "description": "as §1, §2"}, "[4]": {"target": "T2, HER3 intracellular domain (665-1323) (Homo sapiens, UniProt P21860)", "T2 construct": "The HER3 intracellular domain (665-1323) was concentrated on vesicles; made in house", "experiment": "HER3 intracellular domain autophosphorylation on vesicles", "type": "biochemical", "settings": "1 μM HER3 intracellular domain, 200 μM ATP", "description": "FIG. 11. […] 1 μM of The HER3 intracellular domain (665-1323) was concentrated on vesicles and incubated with 200 μM ATP in the presence of varying concentrations of compound 2. HER3 kinase activity inhibition was evaluated by western blotting for autophosphorylation of HER3."}}}
{"smiles": "CS(=O)(=O)CCNCc1ccc(-c2ccc3ncnc(Nc4ccc(OCc5cccc(F)c5)c(Cl)c4)c3c2)o1", "note": "[lapatinib]", "values": [{"measurement": "activation of EGFR family members", "setting": "[1]; SK-BR-3, 1 μM lapatinib +/- NRG, 1 h", "result": "HER3 is the only member of the EGFR family who remains activated"}, {"measurement": "HER2/HER3 signaling after NRG pre-treatment", "setting": "[1]; SK-BR-3, NRG or vehicle 15 min then dose response 15 min", "result": "NRG pre-treatment rescues HER2/HER3 signaling"}, {"measurement": "efficacy on signaling, 15 min pre-treat vs simultaneous addition with NRG", "setting": "[1]; SK-BR-3, serum starved 24 h", "result": "reduced efficacy of lapatinib when simultaneously added with NRG"}, {"measurement": "HER2/HER3 signaling over a time-course", "setting": "[1]; SK-BR-3 treated with lapatinib, NRG, or both", "result": "NRG rescues p-HER3 and all downstream signaling at all time points examined"}, {"measurement": "binding to HER2 mutants judged by signaling after short treatment", "setting": "[2]", "result": "does not efficiently bind to HER2 mutants biased towards the active conformation"}]}
{"smiles": "COc1ccc(-c2ccoc2)cc1Nc1ncnc2[nH]cc(-c3cc[nH]n3)c12", "note": "[compound 3, N-(5-(furan-3-yl)-2-methoxyphenyl)-5-(1H-pyrazol-3-yl)-7H-pyrrolo[2,3-d]pyrimidin-4-amine]", "values": [{"measurement": "inhibition at 1 µM", "setting": "JAK2", "result": 83, "unit": "%"}, {"measurement": "inhibition at 1 µM", "setting": "TYK2", "result": 51, "unit": "%"}, {"measurement": "inhibition at 1 µM", "setting": "JAK1", "result": 52, "unit": "%"}, {"measurement": "sensitivity of cell proliferation", "setting": "NCI-H1781 cells", "result": "sensitive"}, {"measurement": "sensitivity of proliferation inhibition to NRG", "setting": "SK-BR-3 cells", "result": "insensitive to the presence of NRG"}, {"measurement": "GI50", "setting": "[3]", "result": "0.0382 ± 0.0029", "unit": "µM"}]}
{"smiles": "COc1ccc(-c2ccco2)cc1Nc1ncnc2[nH]nc(-c3ccco3)c12", "note": "[compound 2, 3-(furan-2-yl)-N-(5-(furan-2-yl)-2-methoxyphenyl)-1H-pyrazolo[3,4-d]pyrimidin-4-amine]", "values": [{"measurement": "inhibition at 0.1 µM", "setting": "BLK; compound at 100 nM", "result": 59.9, "unit": "%"}, {"measurement": "inhibition at 1 µM", "setting": "BLK; compound at 1 μM", "result": 90.4, "unit": "%"}, {"measurement": "inhibition at 0.1 µM", "setting": "JAK3; compound at 100 nM", "result": 20.4, "unit": "%"}, {"measurement": "inhibition at 1 µM", "setting": "JAK3; compound at 1 μM", "result": 69.4, "unit": "%"}, {"measurement": "inhibition at 0.1 µM", "setting": "TIE2; compound at 100 nM", "result": 12.8, "unit": "%"}, {"measurement": "inhibition at 1 µM", "setting": "TIE2; compound at 1 μM", "result": 59.7, "unit": "%"}, {"measurement": "binding to HER3 / inhibition of HER3 autophosphorylation", "setting": "[4]", "result": "binds to the active site of HER3"}]}
